In this experiment the test system is CD2F1 mice, L1210 leukemia ip, survival T/C. The experiment in a line: NCI In Vivo Anticancer Drug Screen. Data for tumor model L1210 Leukemia (intraperitoneal) in CD2F1 (CDF1) mice. The note with it: higher = longer survival. Put shortly:
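Transplantable tumor in mice; compound-treated vs vehicle-treated groups. Read-out = treated/control ratio of the measured endpoint.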

Where [1] appears, read: endpoint: mean survival time, dose: 50.0 mg/kg/injection, schedule: Q01DX009 (ip), vehicle: saline with Tween-80.
The mark [2] stands for this setting: endpoint: mean survival time, dose: 100.0 mg/kg/injection, schedule: Q01DX009 (ip), vehicle: saline with Tween-80.
[3] abbreviates: endpoint: mean survival time, dose: 200.0 mg/kg/injection, schedule: Q01DX009 (ip), vehicle: saline with Tween-80.
[4] abbreviates: endpoint: mean survival time, dose: 25.0 mg/kg/injection, schedule: Q04DX003 (ip), vehicle: saline.
[5] abbreviates: endpoint: mean survival time, dose: 50.0 mg/kg/injection, schedule: Q04DX003 (ip), vehicle: saline.
Where [6] appears, read: endpoint: mean survival time, dose: 100.0 mg/kg/injection, schedule: Q04DX003 (ip), vehicle: saline with Tween-80.
[7] abbreviates: endpoint: mean survival time, dose: 200.0 mg/kg/injection, schedule: Q04DX003 (ip), vehicle: saline with Tween-80.
Where [8] appears, read: endpoint: mean survival time, dose: 400.0 mg/kg/injection, schedule: Q04DX003 (ip), vehicle: saline with Tween-80.

Experimental findings from PubChem BioAssay AID256 (DTP/NCI, 2004) are described below.

Where “and” joins values, the source holds several entries; their conditions need not be identical. Equal entries are not always repeated. Toxic doses and inconclusive results are not listed.

For `CSc1nc(NC2OC(CO)C(O)C(O)C2O)cc(=O)[nH]1` (centres undefined), the T/C is 102 % of control (endpoint: median survival time, dose: 12.5 mg/kg/injection, schedule: Q01DX005 (ip), vehicle: saline); 100 % of control (endpoint: median survival time, dose: 25.0 mg/kg/injection, schedule: Q01DX005 (ip), vehicle: saline); 100 % of control (endpoint: median survival time, dose: 50.0 mg/kg/injection, schedule: Q01DX005 (ip), vehicle: saline); 100 % of control (endpoint: median survival time, dose: 100.0 mg/kg/injection, schedule: Q01DX005 (ip), vehicle: saline); 102 % of control (endpoint: median survival time, dose: 200.0 mg/kg/injection, schedule: Q01DX005 (ip), vehicle: saline).
Regarding `N#C/C(=C/c1ccc(Cl)cc1)C(N)=O`, the T/C is 96 % of control and 98 % of control (endpoint: mean survival time, dose: 12.5 mg/kg/injection, schedule: Q04DX003 (ip), vehicle: Klucel (hydroxypropylcellulose) (HPC)); 93 % of control and 95 % of control (endpoint: mean survival time, dose: 25.0 mg/kg/injection, schedule: Q04DX003 (ip), vehicle: Klucel (hydroxypropylcellulose) (HPC)); 100 % of control and 104 % of control (endpoint: mean survival time, dose: 50.0 mg/kg/injection, schedule: Q04DX003 (ip), vehicle: Klucel (hydroxypropylcellulose) (HPC)); 121 % of control (endpoint: mean survival time, dose: 100.0 mg/kg/injection, schedule: Q01DX001 (ip), vehicle: saline with Tween-80); 100 % of control and 101 % of control (endpoint: mean survival time, dose: 100.0 mg/kg/injection, schedule: Q04DX003 (ip), vehicle: Klucel (hydroxypropylcellulose) (HPC)); 111 % of control (endpoint: mean survival time, dose: 200.0 mg/kg/injection, schedule: Q01DX001 (ip), vehicle: saline with Tween-80). For the same compound, the T/C (endpoint: mean survival time, dose: 400.0 mg/kg/injection, schedule: Q01DX001 (ip), vehicle: saline with Tween-80) was 101 % of control.
On to `O=C(CNC(=O)Nc1cccc(C(F)(F)F)c1)N/N=C/c1cccs1`, for which the T/C runs as follows: under setting [1], 88 % of control; under setting [2], 96 % of control; under setting [3], 92 % of control.
Turning to `OC[C@@H]1CCCN2CCCC[C@H]12`, the T/C by setting is: under setting [4], 100 % of control; under setting [5], 107 % of control; (endpoint: mean survival time, dose: 100.0 mg/kg/injection, schedule: Q04DX003 (ip), vehicle: saline) 105 % of control.
Consider `c1ccc(CCN2CCC(CCc3c[nH]c4ccccc34)CC2)cc1`, for which the T/C is, setting by setting: under setting [1], 107 % of control; (endpoint: mean survival time, dose: 50.0 mg/kg/injection, schedule: Q04DX003 (ip), vehicle: saline with Tween-80) 110 % of control; under setting [6], 104 % of control; under setting [7], 92 % of control.
`COc1ccc(NC(=O)Nc2ccc(C)cc2C)cc1`: the T/C was 86 % of control under setting [2] and 88 % of control under setting [3].
For the compound `CNC(=O)SCc1ccc(Cl)cc1`, the T/C by setting is: under setting [6], 98 % of control; under setting [7], 96 % of control; under setting [8], 102 % of control.
`O=C(CCBr)N1CCN(C(=O)CCBr)CC1`: the T/C (endpoint: mean survival time, dose: 4.0 mg/kg/injection, schedule: Q03HX016 (ip), vehicle: saline) was 100 % of control; the T/C (endpoint: mean survival time, dose: 4.0 mg/kg/injection, schedule: Q03HX024 (ip), vehicle: saline) is 100 % of control; the T/C (endpoint: mean survival time, dose: 8.0 mg/kg/injection, schedule: Q03HX016 (ip), vehicle: saline) is 101 % of control; the T/C (endpoint: mean survival time, dose: 8.0 mg/kg/injection, schedule: Q03HX016 (oral), vehicle: saline) is 93 % of control; the T/C (endpoint: mean survival time, dose: 8.0 mg/kg/injection, schedule: Q03HX024 (ip), vehicle: saline) was 110 % of control; the T/C (endpoint: mean survival time, dose: 8.0 mg/kg/injection, schedule: Q03HX024 (oral), vehicle: saline) is 119 % of control. The T/C was 120 % of control (endpoint: mean survival time, dose: 16.0 mg/kg/injection, schedule: Q03HX008 (ip), vehicle: saline); 124 % of control (endpoint: mean survival time, dose: 16.0 mg/kg/injection, schedule: Q03HX008 (oral), vehicle: saline); 117 % of control (endpoint: mean survival time, dose: 16.0 mg/kg/injection, schedule: Q03HX016 (ip), vehicle: saline); 100 % of control (endpoint: mean survival time, dose: 16.0 mg/kg/injection, schedule: Q03HX016 (oral), vehicle: saline); 172 % of control (endpoint: mean survival time, dose: 16.0 mg/kg/injection, schedule: Q03HX024 (ip), vehicle: saline); 123 % of control (endpoint: mean survival time, dose: 16.0 mg/kg/injection, schedule: Q03HX024 (oral), vehicle: saline). Moreover, the T/C by setting is: (endpoint: mean survival time, dose: 25.0 mg/kg/injection, schedule: Q01DX009 (ip), vehicle: saline) 124 % of control; (endpoint: mean survival time, dose: 25.0 mg/kg/injection, schedule: Q03DX003 (ip), vehicle: saline) 115 % of control; under setting [4], 108 % of control; (endpoint: mean survival time, dose: 32.0 mg/kg/injection, schedule: Q01DX009 (ip), vehicle: saline) 161 % of control; (endpoint: mean survival time, dose: 32.0 mg/kg/injection, schedule: Q01DX009 (oral), vehicle: saline) 150 % of control; (endpoint: mean survival time, dose: 32.0 mg/kg/injection, schedule: Q03HX008 (ip), vehicle: saline) 160 % of control. Further, the T/C is, setting by setting: (endpoint: mean survival time, dose: 32.0 mg/kg/injection, schedule: Q03HX008 (oral), vehicle: saline) 151 % of control; (endpoint: mean survival time, dose: 32.0 mg/kg/injection, schedule: Q03HX016 (ip), vehicle: saline) 207 % of control; (endpoint: mean survival time, dose: 32.0 mg/kg/injection, schedule: Q03HX016 (oral), vehicle: saline) 162 % of control; (endpoint: mean survival time, dose: 32.0 mg/kg/injection, schedule: Q03HX024 (ip), vehicle: saline) 101 % of control; (endpoint: mean survival time, dose: 32.0 mg/kg/injection, schedule: Q03HX024 (oral), vehicle: saline) 94 % of control; (endpoint: mean survival time, dose: 32.0 mg/kg/injection, schedule: Q04DX003 (ip), vehicle: saline) 118 % of control. Besides, the T/C runs as follows: (endpoint: mean survival time, dose: 32.0 mg/kg/injection, schedule: Q08DX002 (ip), vehicle: saline) 98 % of control; (endpoint: mean survival time, dose: 50.0 mg/kg/injection, schedule: Q03DX003 (ip), vehicle: saline) 124 % of control; under setting [5], 123 % of control; (endpoint: mean survival time, dose: 64.0 mg/kg/injection, schedule: Q01DX009 (ip), vehicle: saline) 156 % of control; (endpoint: mean survival time, dose: 64.0 mg/kg/injection, schedule: Q01DX009 (oral), vehicle: saline) 122 % of control; (endpoint: mean survival time, dose: 64.0 mg/kg/injection, schedule: Q04DX003 (ip), vehicle: saline) 162 % of control. Also, the T/C by setting is: (endpoint: mean survival time, dose: 64.0 mg/kg/injection, schedule: Q08DX002 (ip), vehicle: saline) 115 % of control; (endpoint: mean survival time, dose: 64.0 mg/kg/injection, schedule: Q08DX002 (oral), vehicle: saline) 109 % of control; (endpoint: mean survival time, dose: 100.0 mg/kg/injection, schedule: Q01DX007 (ip), vehicle: saline) 120 % of control; (endpoint: mean survival time, dose: 100.0 mg/kg/injection, schedule: Q03DX003 (ip), vehicle: saline) 167 % of control; (endpoint: mean survival time, dose: 128.0 mg/kg/injection, schedule: Q01DX001 (oral), vehicle: saline) 150 % of control; (endpoint: mean survival time, dose: 128.0 mg/kg/injection, schedule: Q01DX009 (oral), vehicle: saline) 105 % of control. Also, the T/C runs as follows: (endpoint: mean survival time, dose: 128.0 mg/kg/injection, schedule: Q04DX003 (ip), vehicle: saline) 176 % of control; (endpoint: mean survival time, dose: 128.0 mg/kg/injection, schedule: Q04DX003 (oral), vehicle: saline) 157 % of control; (endpoint: mean survival time, dose: 128.0 mg/kg/injection, schedule: Q08DX002 (ip), vehicle: saline) 167 % of control; (endpoint: mean survival time, dose: 256.0 mg/kg/injection, schedule: Q01DX001 (ip), vehicle: saline) 157 % of control; (endpoint: mean survival time, dose: 256.0 mg/kg/injection, schedule: Q01DX009 (oral), vehicle: saline) 88 % of control; (endpoint: mean survival time, dose: 256.0 mg/kg/injection, schedule: Q08DX002 (ip), vehicle: saline) 194 % of control. Also, the T/C was 156 % of control (endpoint: mean survival time, dose: 256.0 mg/kg/injection, schedule: Q08DX002 (oral), vehicle: saline) and 156 % of control (endpoint: mean survival time, dose: 512.0 mg/kg/injection, schedule: Q08DX002 (oral), vehicle: saline).
Regarding `CNc1c(Cl)c(Cl)c(Br)c(Cl)c1Cl`, the T/C was 100 % of control under setting [6], 95 % of control under setting [7] and 101 % of control under setting [8].
In the case of `O=C(NCCNC(=O)Nc1ccc(Cl)cc1)Nc1ccc(Cl)cc1`, the T/C under setting [2] was 105 % of control; the T/C under setting [6] is 88 % of control; the T/C under setting [3] was 107 % of control; the T/C under setting [7] was 90 % of control; the T/C (endpoint: mean survival time, dose: 400.0 mg/kg/injection, schedule: Q01DX009 (ip), vehicle: saline with Tween-80) is 96 % of control; the T/C under setting [8] was 88 % of control.
As to `Oc1ccc(O)cc1`, the T/C is, setting by setting: (endpoint: mean survival time, dose: 33.0 mg/kg/injection, schedule: Q01DX009 (ip), vehicle: saline) 102 % of control and 103 % of control; (endpoint: mean survival time, dose: 75.0 mg/kg/injection, schedule: Q01DX001 (ip), vehicle: saline) 107 % of control; (endpoint: mean survival time, dose: 75.0 mg/kg/injection, schedule: Q01DX009 (ip), vehicle: saline) 120 % of control; (endpoint: mean survival time, dose: 113.0 mg/kg/injection, schedule: Q01DX009 (ip), vehicle: saline) 96 % of control.
